Source: ChEMBL document CHEMBL1275596, “Prevalence of fosfomycin resistance among CTX-M-producing Escherichia coli clinical isolates in Japan and identification of novel plasmid-mediated fosfomycin-modifying enzymes” (2010)
≈ marks a conversion by molar mass, not a printed value.

Experiments:
Type in all cases: functional
[1] = tested on: Escherichia coli; assay: Antimicrobial activity against beta-lactamase CTX-M-producing Escherichia coli isolate 05-244 harboring glpT gene with 328[14-bp duplication]343, uhpT gene with 1173[96-bp deletion]1270
[2] = tested on: Escherichia coli; assay: Antimicrobial activity against beta-lactamase CTX-M-producing Escherichia coli isolate 08-642
[3] = tested on: Escherichia coli; assay: Antimicrobial activity against beta-lactamase CTX-M-producing Escherichia coli isolate 03-287 harboring glpT gene with 405[5-bp duplication]411
[4] = tested on: Escherichia coli; assay: Antimicrobial activity against streptomycin-, chloramphenicol-resistant pBCKS positive Escherichia coli DH10B transformant
[5] = tested on: Escherichia coli; assay: Antimicrobial activity against beta-lactamase CTX-M-producing Escherichia coli isolate 08-555 harboring glpT gene with 981[227-bp deletion]1209
[6] = tested on: Escherichia coli; assay: Antimicrobial activity against Escherichia coli CSH-2 conjugant of strain 08-642
[7] = tested on: Escherichia coli; assay: Antimicrobial activity against beta-lactamase CTX-M-producing Escherichia coli isolate 05-690 harboring uhpA stop at amino acid at 144
[8] = tested on: Escherichia coli; assay: Antimicrobial activity against Escherichia coli CSH-2 conjugant of strain 08-607
[9] = tested on: Escherichia coli; assay: Antimicrobial activity against beta-lactamase CTX-M-producing Escherichia coli isolate 03-285
[10] = tested on: Escherichia coli; assay: Antimicrobial activity against Escherichia coli DH10B transformant containing Sac2 fragment with fosC2 gene from pHPA
[11] = tested on: Escherichia coli; assay: Antimicrobial activity against beta-lactamase CTX-M-producing Escherichia coli isolate 06-607
[12] = tested on: Escherichia coli; assay: Antimicrobial activity against Escherichia coli CSH-2 conjugant of strain C316
[13] = tested on: Escherichia coli; assay: Antimicrobial activity against Escherichia coli DH10B transformant containing Kpn1 fragment with fosA3 gene from 08-642
[14] = tested on: Escherichia coli; assay: Antimicrobial activity against beta-lactamase CTX-M-producing Escherichia coli isolate C316
[15] = tested on: Escherichia coli; assay: Antimicrobial activity against beta-lactamase CTX-M-producing Escherichia coli isolate 03-286 harboring glpT gene with 405[5-bp duplication]411
[16] = tested on: Escherichia coli; assay: Antimicrobial activity against beta-lactamase CTX-M-producing Escherichia coli isolate 03-271
[17] = tested on: Escherichia coli; assay: Antimicrobial activity against Escherichia coli DH10B transformant containing Sac2 fragment with fosA3 gene from 08-607
[18] = tested on: Escherichia coli; assay: Antimicrobial activity against rifampin-, nalidixic acid resistant Escherichia coli CSH-2
[19] = tested on: Escherichia coli; assay: Antimicrobial activity against beta-lactamase CTX-M-producing Escherichia coli isolate 05-244 harboring glpT gene with 328[14-bp duplication]343, uhpT gene with 1173[96-bp deletion]1270 by agar dilution method
[20] = tested on: Escherichia coli; assay: Antimicrobial activity against rifampin-, nalidixic acid resistant Escherichia coli CSH-2 by agar dilution method
[21] = tested on: Escherichia coli; assay: Antimicrobial activity against Escherichia coli DH10B transformant containing Sac2 fragment with fosC2 gene from pHPA by agar dilution method
[22] = tested on: Escherichia coli; assay: Antimicrobial activity against Escherichia coli DH10B transformant containing Sac2 fragment with fosA3 gene from 08-607 by agar dilution method
[23] = tested on: Escherichia coli; assay: Antimicrobial activity against beta-lactamase CTX-M-producing Escherichia coli isolate 06-607 by agar dilution method
[24] = tested on: Escherichia coli; assay: Antimicrobial activity against beta-lactamase CTX-M-producing Escherichia coli isolate 03-287 harboring glpT gene with 405[5-bp duplication]411 by agar dilution method
[25] = tested on: Escherichia coli; assay: Antimicrobial activity against beta-lactamase CTX-M-producing Escherichia coli isolate 05-690 harboring uhpA stop codon at amino acid at 144 by agar dilution method
[26] = tested on: Escherichia coli; assay: Antimicrobial activity against Escherichia coli DH10B transformant containing Kpn1 fragment with fosA3 gene from 08-642 by agar dilution method
[27] = tested on: Escherichia coli; assay: Antimicrobial activity against Escherichia coli CSH-2 conjugant of strain 08-642 by agar dilution method
[28] = tested on: Escherichia coli; assay: Antimicrobial activity against beta-lactamase CTX-M-producing Escherichia coli isolate 03-285 by agar dilution method
[29] = tested on: Escherichia coli; assay: Antimicrobial activity against beta-lactamase CTX-M-producing Escherichia coli isolate 03-286 harboring glpT gene with 405[5-bp duplication]411 by agar dilution method
[30] = tested on: Escherichia coli; assay: Antimicrobial activity against beta-lactamase CTX-M-producing Escherichia coli isolate 03-271 by agar dilution method
[31] = tested on: Escherichia coli; assay: Antimicrobial activity against Escherichia coli CSH-2 conjugant of strain C316 by agar dilution method
[32] = tested on: Escherichia coli; assay: Antimicrobial activity against beta-lactamase CTX-M-producing Escherichia coli isolate 08-555 harboring glpT gene with 981[227-bp deletion]1209 by agar dilution method
[33] = tested on: Escherichia coli; assay: Antimicrobial activity against streptomycin-, chloramphenicol-resistant pBCKS positive Escherichia coli DH10B transformant by agar dilution method
[34] = tested on: Escherichia coli; assay: Antimicrobial activity against Escherichia coli CSH-2 conjugant of strain 08-607 by agar dilution method
[35] = tested on: Escherichia coli; assay: Antimicrobial activity against beta-lactamase CTX-M-producing Escherichia coli isolate C316 by agar dilution method
[36] = tested on: Escherichia coli; assay: Antimicrobial activity against beta-lactamase CTX-M-producing Escherichia coli isolate 08-642 by agar dilution method

How did the MIC [1] turn out when `CO/N=C(\C(=O)N[C@@H]1C(=O)N2C(C(=O)O)=C(COC(C)=O)CS[C@H]12)c1csc(N)n1` [CEFOTAXIME] was run?
Its MIC is over 128 µg/mL.

And the MIC [2]?
Its MIC is 64 µg/mL (≈ 141 µM).

And the MIC [3]?
The MIC was 128 µg/mL (≈ 281 µM).

And the MIC [4]?
Its MIC is at most 0.06 µg/mL.

And the MIC [5]?
Its MIC is over 128 µg/mL.

And the MIC [6]?
The MIC was 128 µg/mL (≈ 281 µM).

And the MIC [7]?
The MIC was 64 µg/mL (≈ 141 µM).

What about the MIC [8] of the same molecule?
The MIC was 32 µg/mL (≈ 70.3 µM).

And the MIC [9]?
Its MIC is over 128 µg/mL.

And the MIC [10]?
The MIC was at most 0.06 µg/mL.

And the MIC [11]?
The MIC was 16 µg/mL (≈ 35.1 µM).

What about the MIC [12] of the same molecule?
The MIC was 64 µg/mL (≈ 141 µM).

And the MIC [13]?
Its MIC is at most 0.06 µg/mL.

And the MIC [14]?
The MIC was 128 µg/mL (≈ 281 µM).

What about the MIC [15] of the same molecule?
The MIC was over 128 µg/mL.

What about the MIC [16] of the same molecule?
Its MIC is 32 µg/mL (≈ 70.3 µM).

What about the MIC [17] of the same molecule?
Its MIC is at most 0.06 µg/mL.

And the MIC [18]?
Its MIC is at most 0.06 µg/mL.

For `C[C@@H]1O[C@@H]1P(=O)(O)O` [FOSFOMYCIN], which MIC [19] is on record?
The MIC was 128 µg/mL (≈ 927 µM).

What about the MIC [20] of the same molecule?
The MIC was 1 µg/mL (≈ 7.24 µM).

What about the MIC [21] of the same molecule?
The MIC was over 256 µg/mL.

What about the MIC [22] of the same molecule?
Its MIC is over 256 µg/mL.

And the MIC [23]?
The MIC was over 256 µg/mL.

What about the MIC [24] of the same molecule?
The MIC was over 256 µg/mL.

What about the MIC [25] of the same molecule?
Its MIC is 64 µg/mL (≈ 464 µM).

What about the MIC [26] of the same molecule?
Its MIC is over 256 µg/mL.

And the MIC [27]?
The MIC was over 256 µg/mL.

What about the MIC [28] of the same molecule?
The MIC was 128 µg/mL (≈ 927 µM).

And the MIC [29]?
The MIC was 64 µg/mL (≈ 464 µM).

And the MIC [30]?
Its MIC is 64 µg/mL (≈ 464 µM).

And the MIC [31]?
The MIC was over 256 µg/mL.

What about the MIC [32] of the same molecule?
The MIC was over 256 µg/mL.

What about the MIC [33] of the same molecule?
Its MIC is 0.5 µg/mL (≈ 3.62 µM).

And the MIC [34]?
The MIC was over 256 µg/mL.

What about the MIC [35] of the same molecule?
Its MIC is 256 µg/mL (≈ 1850 µM).

What about the MIC [36] of the same molecule?
Its MIC is over 256 µg/mL.
